Assay results: ChEMBL document CHEMBL1127771, “Structure-activity relationships in a series of monocyclic endothelin analogues” (Bioorg Med Chem Lett, 1994)
Where a SMILES comes first, the peptide text is derived from it. Bridges are numbered along the chain shown (N, C = ends). [ ]: non-standard residue; d: D form. Aoc = NCCCCCCCC(=O)O; Ava = NCCCCC(=O)O

What was measured:
Endothelin-1 receptor = molecular target: T1, Endothelin-1 receptor (Rattus norvegicus, UniProt P26684); experiment: In vitro binding affinity against Endothelin A receptor by using endothelin (ET-1) as radioligand in rat heart ventricle
T1 sequence (P26684 whole entry): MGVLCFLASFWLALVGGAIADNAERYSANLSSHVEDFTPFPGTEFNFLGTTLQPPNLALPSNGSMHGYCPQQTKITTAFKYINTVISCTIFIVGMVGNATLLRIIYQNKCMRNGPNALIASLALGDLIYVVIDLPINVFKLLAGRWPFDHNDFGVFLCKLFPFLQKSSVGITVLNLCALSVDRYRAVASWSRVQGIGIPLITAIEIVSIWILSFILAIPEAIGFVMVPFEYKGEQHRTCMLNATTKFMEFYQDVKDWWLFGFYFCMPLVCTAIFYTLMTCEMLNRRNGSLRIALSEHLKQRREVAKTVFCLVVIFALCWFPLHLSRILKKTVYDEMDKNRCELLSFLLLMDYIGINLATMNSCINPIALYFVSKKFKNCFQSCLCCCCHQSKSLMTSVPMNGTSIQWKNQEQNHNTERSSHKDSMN

[1] = molecular target: T2, Endothelin receptor type B (Rattus norvegicus, UniProt P21451); experiment: Binding affinity against Endothelin B receptor in rat cerebellar membrane (ET-B) from adult blue laurie rat; assay type: cell membranes, Cerebellum
T2 sequence (P21451 whole entry): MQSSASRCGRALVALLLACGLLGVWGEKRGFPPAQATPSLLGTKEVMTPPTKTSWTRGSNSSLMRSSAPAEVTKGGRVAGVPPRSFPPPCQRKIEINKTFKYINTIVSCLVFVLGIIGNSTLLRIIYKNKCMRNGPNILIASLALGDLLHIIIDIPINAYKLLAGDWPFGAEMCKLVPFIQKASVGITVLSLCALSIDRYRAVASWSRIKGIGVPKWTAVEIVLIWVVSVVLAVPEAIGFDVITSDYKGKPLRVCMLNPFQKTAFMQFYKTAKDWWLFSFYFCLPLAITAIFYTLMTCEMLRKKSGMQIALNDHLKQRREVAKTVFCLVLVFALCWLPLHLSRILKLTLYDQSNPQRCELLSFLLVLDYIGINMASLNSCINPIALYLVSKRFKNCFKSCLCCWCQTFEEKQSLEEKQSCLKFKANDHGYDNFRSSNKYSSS

Rattus norvegicus = species on record: Rattus norvegicus; experiment: Inhibition of ET-1 induced accumulation of inositol phosphates (IP-3) in rat skin fibroblasts; assay type: functional
[2] = molecular target: T2, Endothelin receptor type B; experiment: Binding affinity against endothelin receptor in rat cerebellar membrane (ET-B) from adult blue laurie rat; assay type: cell membranes, Cerebellum

Compound | IC50 (Endothelin-1 receptor) | IC50 [1] | IC50 (Rattus norvegicus) | IC50 [2]
CC[C@H](C)[C@H](NC(=O)[C@H](CC(=O)O)NC(=O)[C@H](CC(C)C)NC(=O)[C@H](Cc1c[nH]cn1)NC(=O)[C@@H]1CSSC[C@H](N)C(=O)N[C@@H](CO)C(=O)NCCCCCCC(=O)N[C@@H](C(C)C)C(=O)N[C@@H](Cc2ccc(O)cc2)C(=O)N[C@@H](Cc2ccccc2)C(=O)N1)C(=O)N[C@H](C(=O)N[C@@H](Cc1c[nH]c2ccccc12)C(=O)O)[C@@H](C)CC [listing 1 of 2 here] | 2500 nM |  |  | 
CC[C@H](C)[C@H](NC(=O)[C@H](CC(=O)O)NC(=O)[C@H](CC(C)C)NC(=O)[C@H](Cc1c[nH]cn1)NC(=O)[C@@H]1CSSC[C@H](N)C(=O)N[C@@H](CO)C(=O)N[C@@H](CO)C(=O)N[C@@H](CO)C(=O)N[C@@H](C(C)C)C(=O)N[C@@H](Cc2ccc(O)cc2)C(=O)N[C@@H](Cc2ccccc2)C(=O)N1)C(=O)N[C@H](C(=O)N[C@@H](Cc1c[nH]c2ccccc12)C(=O)O)[C@@H](C)CC (H-CSSSVYFCHLDIIW-OH; disulfide 1-8) | 1200 nM | 60 nM | 5000 nM | 
CC[C@H](C)[C@H](NC(=O)[C@H](CC(=O)O)NC(=O)[C@H](CC(C)C)NC(=O)[C@H](Cc1c[nH]cn1)NC(=O)[C@@H]1CSSC[C@H](N)C(=O)N[C@@H](CO)C(=O)N[C@@H](C(C)C)C(=O)N[C@@H](Cc2ccc(O)cc2)C(=O)N[C@@H](Cc2ccccc2)C(=O)N1)C(=O)N[C@H](C(=O)N[C@@H](Cc1c[nH]c2ccccc12)C(=O)O)[C@@H](C)CC (H-CSVYFCHLDIIW-OH; disulfide 1-6) | 2800 nM | 1700 nM |  | 
CC[C@H](C)[C@H](NC(=O)[C@H](CC(=O)O)NC(=O)[C@H](CC(C)C)NC(=O)[C@H](Cc1c[nH]cn1)NC(=O)[C@@H]1CSSC[C@H](N)C(=O)N[C@@H](CO)C(=O)NCCCCC(=O)N[C@@H](C(C)C)C(=O)N[C@@H](Cc2ccc(O)cc2)C(=O)N[C@@H](Cc2ccccc2)C(=O)N1)C(=O)N[C@H](C(=O)N[C@@H](Cc1c[nH]c2ccccc12)C(=O)O)[C@@H](C)CC (H-CS[Ava]VYFCHLDIIW-OH; disulfide 1-7) | 1800 nM |  | > 10000 nM | 350 nM
CC[C@H](C)[C@H](NC(=O)[C@H](CC(=O)O)NC(=O)[C@H](CC(C)C)NC(=O)[C@H](Cc1cnc[nH]1)NC(=O)[C@@H]1CSSC[C@H](N)C(=O)N[C@@H](CO)C(=O)N[C@@H](CO)C(=O)N[C@@H](CC(C)C)C(=O)N[C@@H](CCSC)C(=O)N[C@@H](CC(=O)O)C(=O)N[C@@H](CCCCN)C(=O)N[C@@H](CCC(=O)O)C(=O)N1)C(=O)N[C@H](C(=O)N[C@@H](Cc1c[nH]c2ccccc12)C(=O)O)[C@@H](C)CC (H-CSSLMDKECHLDIIW-OH; disulfide 1-9) | 49000 nM |  |  | > 10000 nM
CC[C@H](C)[C@H](NC(=O)[C@H](CC(=O)O)NC(=O)[C@H](CC(C)C)NC(=O)[C@H](Cc1c[nH]cn1)NC(=O)[C@@H]1CSSC[C@H](N)C(=O)N[C@@H](CO)C(=O)NCCCCCCCC(=O)N[C@@H](C(C)C)C(=O)N[C@@H](Cc2ccc(O)cc2)C(=O)N[C@@H](Cc2ccccc2)C(=O)N1)C(=O)N[C@H](C(=O)N[C@@H](Cc1c[nH]c2ccccc12)C(=O)O)[C@@H](C)CC (H-CS[Aoc]VYFCHLDIIW-OH; disulfide 1-7) |  |  | 3000 nM | 
CC[C@H](C)[C@H](NC(=O)[C@H](CC(=O)O)NC(=O)[C@H](CC(C)C)NC(=O)[C@H](Cc1c[nH]cn1)NC(=O)[C@@H]1CSSC[C@H](N)C(=O)N[C@@H](CO)C(=O)N[C@@H](CC(=O)O)C(=O)N[C@@H](CCCCN)C(=O)N[C@@H](CCC(=O)O)C(=O)N[C@@H](C(C)C)C(=O)N[C@@H](Cc2ccc(O)cc2)C(=O)N[C@@H](Cc2ccccc2)C(=O)N1)C(=O)N[C@H](C(=O)N[C@@H](Cc1c[nH]c2ccccc12)C(=O)O)[C@@H](C)CC (H-CSDKEVYFCHLDIIW-OH; disulfide 1-9) [listing 1 of 2 here] |  |  | > 10000 nM | 
CC[C@H](C)[C@H](NC(=O)[C@H](CC(=O)O)NC(=O)[C@H](CC(C)C)NC(=O)[C@H](Cc1c[nH]cn1)NC(=O)[C@@H]1CSSC[C@H](N)C(=O)N[C@@H](CO)C(=O)N[C@@H](CC(=O)O)C(=O)N[C@@H](CCCCN)C(=O)N[C@@H](CCC(=O)O)C(=O)N[C@@H](C(C)C)C(=O)N[C@@H](Cc2ccc(O)cc2)C(=O)N[C@@H](Cc2ccccc2)C(=O)N1)C(=O)N[C@H](C(=O)N[C@@H](Cc1c[nH]c2ccccc12)C(=O)O)[C@@H](C)CC (H-CSDKEVYFCHLDIIW-OH; disulfide 1-9) [listing 2 of 2 here] | 3500 nM | 1100 nM |  | 
CC[C@H](C)[C@H](NC(=O)[C@H](CC(=O)O)NC(=O)[C@H](CC(C)C)NC(=O)[C@H](Cc1c[nH]cn1)NC(=O)[C@@H]1CSSC[C@H](N)C(=O)N[C@@H](C(C)C)C(=O)N[C@@H](Cc2ccc(O)cc2)C(=O)N[C@@H](Cc2ccccc2)C(=O)N1)C(=O)N[C@H](C(=O)N[C@@H](Cc1c[nH]c2ccccc12)C(=O)O)[C@@H](C)CC (H-CVYFCHLDIIW-OH; disulfide 1-5) | 6500 nM | 1700 nM | 2200 nM | 
CC[C@H](C)[C@H](NC(=O)[C@H](CC(=O)O)NC(=O)[C@H](CC(C)C)NC(=O)[C@H](Cc1cnc[nH]1)NC(=O)[C@@H]1CSSC[C@H](N)C(=O)N[C@@H](CO)C(=O)NCCCCCCCC(=O)N[C@@H](C(C)C)C(=O)N[C@@H](Cc2ccc(O)cc2)C(=O)N[C@@H](Cc2ccccc2)C(=O)N1)C(=O)N[C@H](C(=O)N[C@@H](Cc1c[nH]c2ccccc12)C(=O)O)[C@@H](C)CC (H-CS[Aoc]VYFCHLDIIW-OH; disulfide 1-7) | 1600 nM | 240 nM |  | 
CC[C@H](C)[C@H](NC(=O)[C@H](CC(=O)O)NC(=O)[C@H](CC(C)C)NC(=O)[C@H](Cc1c[nH]cn1)NC(=O)[C@@H]1CSSC[C@H](N)C(=O)N[C@@H](CO)C(=O)N[C@@H](CO)C(=O)N[C@@H](C(C)C)C(=O)N[C@@H](Cc2ccc(O)cc2)C(=O)N[C@@H](Cc2ccccc2)C(=O)N1)C(=O)N[C@H](C(=O)N[C@@H](Cc1c[nH]c2ccccc12)C(=O)O)[C@@H](C)CC (H-CSSVYFCHLDIIW-OH; disulfide 1-7) | 1800 nM | 1400 nM |  | 
CC[C@H](C)[C@H](NC(=O)[C@H](CC(=O)O)NC(=O)[C@H](CC(C)C)NC(=O)[C@H](Cc1c[nH]cn1)NC(=O)[C@@H]1CSSC[C@H](N)C(=O)N[C@@H](CO)C(=O)NCCCCCCC(=O)N[C@@H](C(C)C)C(=O)N[C@@H](Cc2ccc(O)cc2)C(=O)N[C@@H](Cc2ccccc2)C(=O)N1)C(=O)N[C@H](C(=O)N[C@@H](Cc1c[nH]c2ccccc12)C(=O)O)[C@@H](C)CC [listing 2 of 2 here] |  |  | 8000 nM | 
